In US8894993B2, “Mitochondria-targeted antioxidants” (Natreon Inc., priority 2006, dated 2014):

Columns and labels:
Assay type in all cases: in vivo, Swiss albino mice
[1] = system: Superoxide dismutase (SOD) activity in liver; experiment: Superoxide dismutase activity in liver of mice after restraint stress; settings: 25 mg/Kg p.o. 7 days, control 0.6
Method: (§1) Swiss albino mice (20±2 g) were fed orally with—(a) 3-OH-DBP and (b) 3,8-(OH)2-DBP (each 25 mg/Kg b.w. per day, for 7 days). In case of the controls, only vehicle (0.8% carboxymethyl cellulose in water) was administered for seven days of the experiment. All the animals of all the groups were subjected to restraint stress (for 60 minutes) on the seventh day of the experiment, 2 hours after drug administration, according to a published method [Figueiredo, H. F., Bodie, B. L., Tauchi, M., Dolgas, C. M. and Herman, J. P. 2003. Endocrinology, 144, 5249-5258]. The model was selected in the present experiment, because restraint stress is a widely used model of acute oxidative stress. Immediately after being exposed to stress, the animals were sacrificed, blood was collected for analysis by HPLC of ATP and related nucleotides [Smolenska, Z., Kaznowska, Z., Zarowny, D., Simmonds, H. A. and Smolenski, R. T. 1999. […] AEC (adenylate energy charge) was calculated according to the method of Atkinson and Walton [Atkinson D E & Walton G M, Adenosine triphosphate conservation in metabolic regulation, J Biol Chem, 242 (1967) 3239] and TAN (total adenine nucleotides) was calculated according to an established method [Spencer M K & Katz A, Role of glycogen in control of glycolysis and IMP formation in human muscle during exercise, Am J Physiol, 260 (1991) E859]. […]

[2] = system: Blood levels of ATP and energy related indices; experiment: Blood ATP and energy related indices in mice after forced swimming stress
Method: Swiss albino mice (20±2 g) were fed orally with—(a) 3,8-(OH)2-DBP and (b) 3-OH-DBP (each 25 mg/Kg b.w.), per day, for 7 days. In case of the controls, only vehicle (0.8% carboxymethyl cellulose in water) was administered for seven days of the experiment. The animals were subjected to ‘forced swimming’ for 30 minutes on the 7th day of the experiment [Pliakas, A. M., Carlson, R. R., Neve, R. L., Konradi, C., Nestler, E. J. and Carlezon, W. A. 2001. J. Neurosci., 21(18), 7397-7403]. Immediately after the swimming, blood was collected from all the animals for analysis of ATP and related nucleotides by HPLC [Smolenska, Z., Kaznowska, Z., Zarowny, D., Simmonds, H. A. and Smolenski, R. T. 1999. Rheumatology, 38, 997-1002; Komarova, S. V., Mosharov, E. V., Vitvitsky, V. M. and Ataullakhanov, F. I. 1999. Blood Cell Mol. Dis., 25(13), 170-179; Marquardt, D. L., Gruber, H. E. and Wasserman, S. I. 1984. Proc. Natl. Acad. Sci., 81, 6192-6196]. AEC (adenylate energy charge) was calculated according to the method of Atkinson and Walton [Atkinson D E & Walton G M, Adenosine triphosphate conservation in metabolic regulation, J Biol Chem, 242 (1967) 3239] and TAN (total adenine nucleotides) was calculated according to an established method [Spencer M K & Katz A, Role of glycogen in control of glycolysis and IMP formation in human muscle during exercise, Am J Physiol, 260 (1991) E859].

[3] = system: Blood levels of ATP and energy related indices; experiment: Blood ATP and energy related indices in mice after restraint stress; settings: 25 mg/Kg p.o. 7 days
Method: Swiss albino mice (20±2 g) were fed orally with—(a) 3-OH-DBP and (b) 3,8-(OH)2-DBP (each 25 mg/Kg b.w. per day, for 7 days). In case of the controls, only vehicle (0.8% carboxymethyl cellulose in water) was administered for seven days of the experiment. All the animals of all the groups were subjected to restraint stress (for 60 minutes) on the seventh day of the experiment, 2 hours after drug administration, according to a published method [Figueiredo, H. F., Bodie, B. L., Tauchi, M., Dolgas, C. M. and Herman, J. P. 2003. Endocrinology, 144, 5249-5258]. The model was selected in the present experiment, because restraint stress is a widely used model of acute oxidative stress. Immediately after being exposed to stress, the animals were sacrificed, blood was collected for analysis by HPLC of ATP and related nucleotides [Smolenska, Z., Kaznowska, Z., Zarowny, D., Simmonds, H. A. and Smolenski, R. T. 1999. Rheumatology, 38, 997-1002; Komarova, S. V., Mosharov, E. V., Vitvitsky, V. M. and Ataullakhanov, F. I. 1999. Blood Cell Mol. Dis., 25(13), 170-179; Marquardt, D. L., Gruber, H. E. and Wasserman, S. I. 1984. Proc. Natl. Acad. Sci., 81, 6192-6196], and liver was collected for measurement of superoxide dismutase and catalase activities [Zielinski, S, and Pörtner, H. 2000. Comparative Biochem. Physiol. Part B, 125, 147-[60]. AEC (adenylate energy charge) was calculated according to the method of Atkinson and Walton [Atkinson D E & Walton G M, Adenosine triphosphate conservation in metabolic regulation, J Biol Chem, 242 (1967) 3239] and TAN (total adenine nucleotides) was calculated according to an established method [Spencer M K & Katz A, Role of glycogen in control of glycolysis and IMP formation in human muscle during exercise, Am J Physiol, 260 (1991) E859].

[4] = system: Catalase activity in liver; experiment: Catalase activity in liver of mice after restraint stress; settings: 25 mg/Kg p.o. 7 days, control 3.9
Method: as §1

[5] = Coenzyme Q in mice blood plasma and organs after oral feeding, HPLC; settings: oral each 5 mg/Kg b.w. per day for 5 days
Method: One year old caged stressed Sprague-Dawley rats (250-270 gms) were fed the following, individually or in combination after suspension in 0.8% carboxymethyl cellulose: CoQ10 (5 mg/Kg b.w./day) and 3,8-(OH)2-DBP (5 mg/Kg b.w./day) for 5 days. Blood was collected by puncture of the retro-orbital plexus. The plasma was separated by centrifugation, extracted with methanol and subjected to HPLC. In another experiment, Swiss albino mice (20±2 g) were fed orally with—(a) 3,8-(OH)2-DBP; (b) CoQ10; (c) a combination of 3,8-(OH)2-DBP and CoQ10 and (d) 3,8-(OH)2-DBP and CoQ10 in a clathrated form with Shilajit-fusoms (each 5 mg/Kg b.w.), per day, for 5 days. The animals were subjected to hypoxic stress for 1 hour each day for 3 days from the 3rd day of the experiment. After the stipulated time-period, the content of CoQ10 and their conjugates with DBP were estimated in heart, kidney, liver (in wet weight basis) and in blood, by HPLC, after proper extraction from the tissues according to the procedure depicted in the literature (Rousseau, G and Varin, F, Determination of Ubiquinone-9 and 10 levels in rat tissues and blood by High Performance Liquid Chromatography with Ultraviolet detection. J. Chromat. Sci., 36(5): 247-252, 1998).
Column—RP C18 Xterra [250×4 mm]
Mobile phase—Methanol:Acetonitrile:Ethanol 30:30:40
Detection—PDA 275 nm for CoQ10
Bioavailability was more when CoQ10 and 3,8-(OH)2-DBP using the fulvic acid system. A systemic increment of CoQ10 was also observed in mice blood plasma and a few organs upon oral feeding of this formulation. The extent of the increment of CoQ10 was more when CoQ10 and 3,8-(OH)2-DBP were targeted to mitochondria using the fulvic acid delivery system (Table 5). A similar trend in the increment was also observed in the case of CoQ10-DBP conjugates when the fulvic acid system was used. […] Thus, concurrent supplementation of CoQ10 and 3,8-(OH)2-DBP [or 3-OH-DBP, which is systemically converted into 3,8-(OH)2-DBP] using a fulvic acid delivery system would efficiently perform their targeting to mitochondria. This can be regarded as effective therapeutic strategy against stress-induced oxidative damage of cells and DNA damage due to old-age.

[6] = system: stress-induced lipid peroxidation of mouse liver mitochondria; experiment: Stress-induced lipid peroxidation of mouse liver mitochondria (thiobarbituric acid reaction); settings: oral each 5 mg/Kg b.w. per day for 5 days, hypoxic stress, control 0.495
Method: (§2) Swiss albino mice (20±g) were fed orally with—(a) 3,8-(OH)2-DBP; (b) CoQ10; (c) a combination of 3,8-(OH)2-DBP and CoQ10 and (d) 3,8-(OH)2-DBP and CoQ10 in a clathrated form with fusoms (each 5 mg/Kg b.w.), per day, for 5 days. The animals were subjected to hypoxic stress for 1 hour each day for 3 days from the 3rd day of the experiment. After the stipulated time-period, brain and liver of the animals were collected and mitochondria from the liver were separated as described previously (Liu Y, Deng F, Zhao R and Qu S, Chemosphere, 40(8):851-854, 2000). Lipid peroxidation in brain and liver-mitochondria was estimated by the method of Ohkawa et al. (Ohkawa H, Ohishi N and Yagi K, Assay for lipid peroxides in animal tissues by thiobarbituric acid reaction. Anal. Biochem., 95:351-358, 1979).

[7] = system: stress-induced lipid peroxidation of mouse brain; experiment: Stress-induced lipid peroxidation of mouse brain (thiobarbituric acid reaction); settings: oral each 5 mg/Kg b.w. per day for 5 days, hypoxic stress, control 1.169
Method: as §2

With `O=c1oc2cc(O)ccc2c2ccccc12` [3-OH-DBP, 3-hydroxydibenzo-α-pyrone] the “SOD activity in liver” value [1] was 0.91 U/gm tissue, the “content of ATP, AEC values and ATP/ADP ratio (in blood), in words” value ([2]; albino mice engaged in forced swimming) was “significantly improved” and the ATP ([2]; blood, forced swimming, 25 mg/Kg p.o. 7 days, mean ± SEM of 6, control 0.60 ± 0.01) was 0.72 ± 0.03 µM. It also gave a TAN ([2]; blood, forced swimming, 25 mg/Kg p.o. 7 days, mean ± SEM of 6, control 0.79 ± 0.01) of 0.90 ± 0.04 µM, an AEC ([2]; blood, forced swimming, 25 mg/Kg p.o. 7 days, mean ± SEM of 6, control 0.86 ± 0.003) of 0.89 ± 0.002 and an ATP/ADP ratio ([2]; blood, forced swimming, 25 mg/Kg p.o. 7 days, mean ± SEM of 6, control 3.84 ± 0.09) of 4.82 ± 0.09. The ADP ([3]; mean ± SEM of 6, control 0.14 ± 0.02) was 0.09 ± 0.01 µM, the ATP ([3]; mean ± SEM of 6, control 0.67 ± 0.03) was 0.66 ± 0.04 µM and the TAN ([3]; mean ± SEM of 6, control 0.76 ± 0.03) was 0.79 ± 0.05 µM. The AEC ([3]; mean ± SEM of 6, control 0.89 ± 0.01) was 0.90 ± 0.01, the ATP/ADP ratio ([3]; mean ± SEM of 6, control 4.90 ± 0.32) was 7.04 ± 0.38 and the “Catalase activity in liver” value [4] was 3.5 U/mg tissue.
For `COC1=C(OC)C(=O)C(C/C=C(\C)CC/C=C(\C)CC/C=C(\C)CC/C=C(\C)CC/C=C(\C)CC/C=C(\C)CC/C=C(\C)CC/C=C(\C)CC/C=C(\C)CCC=C(C)C)=C(C)C1=O` [CoQ10], the concentration at 5 days ([5]; Swiss albino, mouse, blood) was 810 nM, the “Coenzyme Q: Heart” value ([5]; wet weight) was 35.69 nmol/gm and the “Coenzyme Q: Kidney” value ([5]; wet weight) was 16.51 nmol/gm. For the same compound, the “Coenzyme Q: Liver” value ([5]; wet weight) was 19.41 nmol/gm, the “OD Values at 532 nm (lipid peroxidation)” value [6] was 0.467 and the “OD Values at 532 nm (lipid peroxidation)” value [7] was 1.147.
